Counter-ions that a name gives are not always drawn.
Biological target: T1, human recombinant ENPP1 enzymes (Homo sapiens, UniProt P22413)
T1 construct: purchased R & D systems
T1 sequence (P22413 1-925): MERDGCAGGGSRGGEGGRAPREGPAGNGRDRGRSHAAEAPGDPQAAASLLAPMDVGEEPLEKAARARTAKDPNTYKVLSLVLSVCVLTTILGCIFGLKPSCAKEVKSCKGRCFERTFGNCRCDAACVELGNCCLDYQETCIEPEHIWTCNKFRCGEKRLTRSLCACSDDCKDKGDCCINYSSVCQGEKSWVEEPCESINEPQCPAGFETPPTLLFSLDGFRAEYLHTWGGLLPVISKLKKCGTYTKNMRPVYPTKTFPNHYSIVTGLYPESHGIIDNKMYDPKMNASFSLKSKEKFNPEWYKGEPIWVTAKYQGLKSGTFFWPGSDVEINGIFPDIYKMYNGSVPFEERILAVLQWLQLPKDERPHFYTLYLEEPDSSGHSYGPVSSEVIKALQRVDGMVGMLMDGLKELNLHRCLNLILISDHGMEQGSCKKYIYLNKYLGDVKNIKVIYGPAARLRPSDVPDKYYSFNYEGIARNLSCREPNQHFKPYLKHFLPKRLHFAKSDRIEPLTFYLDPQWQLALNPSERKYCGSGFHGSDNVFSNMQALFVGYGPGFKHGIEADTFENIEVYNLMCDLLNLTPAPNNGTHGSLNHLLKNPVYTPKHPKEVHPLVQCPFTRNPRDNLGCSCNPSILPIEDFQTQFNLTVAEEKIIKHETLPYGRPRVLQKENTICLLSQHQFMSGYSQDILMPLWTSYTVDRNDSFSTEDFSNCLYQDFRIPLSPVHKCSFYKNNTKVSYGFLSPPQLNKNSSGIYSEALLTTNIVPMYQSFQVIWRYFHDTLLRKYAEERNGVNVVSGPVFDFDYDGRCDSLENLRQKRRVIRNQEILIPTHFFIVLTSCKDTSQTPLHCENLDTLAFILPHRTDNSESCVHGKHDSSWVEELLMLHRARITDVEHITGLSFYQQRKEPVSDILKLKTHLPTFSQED
Test: ENPP1 Enzyme Assay with cGAMP Substrate (AMP-Glo)
Assay type: biochemical
Details: human recombinant ENPP1, cGAMP 5 μM, 37° C. 90 minutes, AMP-Glo luminescence; read-out: Enzymatic activity (IC50)
Method: ENPP1 hydrolyzes nucleotides or nucleotide derivatives to produce nucleoside-5′-monophosphate and pyrophosphate. In addition, ENPP1 hydrolyzes 2′,3′-cGAMP to produce 5′-adenosine monophosphate (AMP) and 5′-guanosine monophosphate (GMP). AMP produced from the reaction is measured using the AMP-Glo® kit (Promega). The AMP-Glo® kit contains two reagents. The first reagent terminates the AMP-producing enzymatic reaction, removes ATP and converts the produced AMP into ADP. The second reagent converts ADP into ATP which is used to generate luminescence in the luciferase reaction. The amount of luminescence measured is proportional to the amount of AMP produced by ENPP1.
The final reaction solution contains 50 mM Tris (pH 8.5) buffer, 250 mM NaCl, 0.5 mM CaCl2), 1 μM ZnCl2, 5% glycerol and 1% DMSO. Serially diluted ENPP1 inhibitors (typically in the range of 10 μM to 0.5 nM) were pre-stored with human recombinant ENPP1 enzymes (R & D systems) at 3 ng/reaction and room temperature (RT) for 5 to 10 minutes. The reaction was initiated by addition of cGAMP (at a final concentration of 5 μM) and reacted at 37° C. for 90 minutes. At the end of the reaction, 10 μl of the AMP-Glo first reagent was added to stop the reaction and the result was stored at room temperature for 1 hour. After storage, 20 μl of an AMP detection solution (a mixture of AMP-Glo II reagent and Kinase-Glo at a ratio of 1:100) was added and stored at room temperature for 1 hour. Luminescence signals were measured using a Victor® plate reader (Perkin Elmer). The maximal activity control (containing enzymes and substrates in the presence of 1% DMSO; MAX) and the minimal activity control (containing substrates and 1% DMSO; MIN) were evaluated simultaneously. In each experiment, serially diluted reference ENPP1 inhibitors were tested as well. IC50, indicating % residual activity versus compound concentration was determined by fitting inhibition curves using the 3-parameter analysis of GraphPad Prism® software. Serially diluted samples of one compound were tested two or more times and an average IC50 of each compound was calculated.

SMILES	IC50 [nM]
COc1ccc2c(c1)nnn2-c1ccc2c(c1)CNCC2 [Example 25, 7-(5-methoxy-1H-benzo[d][1,2,3]triazol-1-yl)-1,2,3,4-tetrahydroisoquinoline Hydrochloride]	> 10000
COc1ccc2c(c1)nnn2-c1c(F)cc(CNS(N)(=O)=O)cc1F [Example 64, N-(3,5-difluoro-4-(5-methoxy-1H-benzo[d][1,2,3]triazol-1-yl)-benzyl)sulfamide]	< 1000
COc1ccc2c(c1)nnn2-c1ccc(NS(N)(=O)=O)cc1 [Example 48, N-(4-(5-methoxy-1H-benzo[d][1,2,3]triazol-1-yl)phenyl)sulfamide Hydrochloride]	< 1000
NS(=O)(=O)NCc1ccc(-n2nnc3cc(OC(F)F)ccc32)c(F)c1 [Example 91]	< 1000
COc1ccc2c(c1)nnn2-c1ccc(CNS(N)(=O)=O)c(F)c1F [Example 65, N-(2,3-difluoro-4-(5-methoxy-1H-benzo[d][1,2,3]triazol-1-yl)-benzyl)sulfamide]	< 1000
COc1cc2nnn(-c3ccc(CNS(N)(=O)=O)cc3)c2cc1OC [Example 55, N-(4-(5,6-dimethoxy-1H-benzo[d][1,2,3]triazol-1-yl)benzyl)sulfamide]	< 1000
COc1ccc2c(c1)nnn2-c1ccc2c(c1)CCN(S(N)(=O)=O)C2 [Example 96, 6-(5-methoxy-1H-benzo[d][1,2,3]triazol-1-yl)-3,4-dihydroisoquinoline-2(1H)sulfonamide]	< 1000
COc1ccc2c(c1)nnn2-c1ccc([C@H](C)N)cc1 [Example 14, (S)-1-(4-(5-methoxy-1H-benzo[d][1,2,3]triazol-1-yl)phenyl)ethan-1-amine Hydrochloride]	< 1000
NS(=O)(=O)NCc1ccc(-n2nnc3ccccc32)c(F)c1 [Example 56, N-(4-(1H-benzo[d][1,2,3]triazol-1-yl)-3-fluorobenzyl)sulfamide]	< 1000
COc1cc2nnn(-c3ccc(CNS(N)(=O)=O)cc3F)c2cc1C [Example 70, N-(3-fluoro-4-(5-methoxy-6-methyl-1H-benzo[d][1,2,3]triazol-1-yl)benzyl)sulfamide]	< 1000
COc1ccc2c(c1)nnn2-c1ccc(CP(=O)(O)O)cc1 [Example 119]	< 1000
COc1ccc2c(c1)nnn2-c1cccc(NS(N)(=O)=O)c1 [Example 47, N-(3-(5-methoxy-1H-benzo[d][1,2,3]triazol-1-yl)phenyl)sulfamide]	1000 to 10000
NS(=O)(=O)NCc1ccc(-n2nnc3cc(OCF)ccc32)c(F)c1 [Example 88]	> 10000
COc1ccc2c(c1)nnn2-c1ccc(CN)cc1Cl [Example 15, 3-chloro-4-(5-methoxy-1H-benzo[d][1,2,3]triazol-1-yl)phenyl)methanamine Hydrochloride]	< 1000
NCc1ccc(-n2nnc3ccccc32)cc1 [Example 5, 4-(1H-benzo[d][1,2,3]triazol-1-yl)phenyl)methanamine Hydrochloride]	< 1000
COc1ccc2c(c1)nnn2-c1ccc(CN(C)S(N)(=O)=O)cc1F [Example 81, N-(3-fluoro-4-(5-methoxy-1H-benzo[d][1,2,3]triazol-1-yl)benzyl)-N-methylsulfamide]	< 1000
COc1ccc2c(c1)nnn2-c1cc(F)c(CN)c(F)c1 [Example 18]	> 10000
COc1ccc2c(c1)nnn2-c1ccc(CNS(=O)(=O)c2ccc(C)cc2)cc1F [Example 114, N-(3-fluoro-4-(5-methoxy-1H-benzo[d][1,2,3]triazol-1-yl)benzyl)-4-methylbenzenesulfonamide]	> 10000
CC(C)Oc1ccc2c(c1)nnn2-c1ccc(CN)cc1F [Example 20]	> 10000
NS(=O)(=O)NCc1ccc(-n2nnc3ccccc32)c(F)c1F [Example 57, N-(4-(1H-benzo[d][1,2,3]triazol-1-yl)-2,3-difluorobenzyl)sulfamide]	< 1000
COc1cccc2c1nnn2-c1ccc(CN)cc1 [Example 6, 4-(4-methoxy-1H-benzo[d][1,2,3]triazol-1-yl)phenyl)methanamine Hydrochloride]	> 10000

Source: patent US20240116882A1, “NOVEL BENZOTRIAZOLE DERIVATIVE HAVING INHIBITORY ACTIVITY AGAINST ECTONUCLEOTIDE PYROPHOSPHATASE-PHOSPHODIESTERASE, AND USE THEREOF” (TXINNO BIOSCIENCE INC., priority 2021, published 2024)
